# According to a melting point compilation (Tetko et al.):
row,Structure (SMILES),melting point
1,CCOC(=O)c1cn[nH]c1S(N)(=O)=O,171 to 173 °C
2,CC(=O)Nc1c(C)n[nH]c1C,202 to 204 °C
3,Nc1ccc(-c2cccc(C(F)(F)F)c2)cc1,65 to 67 °C
4,CC(Cl)C(=O)N1CCNC1=O (stereo not drawn),116 to 120 °C
5,CCCn1ccnc1S,119 to 121 °C
6,CC(C)(C)C=CC(=O)O,60 to 62 °C
7,CCOc1ccc(NC(=S)NN)cc1,178 to 182 °C
8,NNS(=O)(=O)c1ccc(Cl)c([N+](=O)[O-])c1,126 to 128 °C
9,ClCc1nc(Cl)c2cnn(-c3ccccc3)c2n1,112 to 114 °C
10,CNc1snc(C)c1C(=O)OC,56 to 58 °C
11,CN1CCN(c2ccc(C#N)cn2)CC1,67 to 69 °C
12,CC12CCCC(C(=O)O)(CCC1)C2,144 to 146 °C
13,CCN(CC)c1ccc(C=C[N+](=O)[O-])cc1,98 to 100 °C
14,O=C(CCl)N(Cc1cccs1)C1CCS(=O)(=O)C1 (stereo not drawn),< 17 °C
15,O=C(O)C(Br)C12CC3CC(CC(C3)C1)C2 (stereo not drawn),162 to 166 °C
16,Sc1nnc(C2CCCCC2)o1,81 to 83 °C
17,O=C1CC2(CCOCC2)CN1,132 to 134 °C
18,Cc1cc(/C=C(\C#N)C(=O)O)c(C)n1CCC(C)C,229 to 231 °C
19,COc1ccc(-c2nn(-c3ccccc3)cc2CCl)cc1,89 to 91 °C
20,Nc1ccccc1S(=O)(=O)N1CCOCC1,114 to 116 °C
21,CCN(CC)C(=O)N1CCCC(C(=O)O)C1 (stereo not drawn),94 to 96 °C
22,CC(C)N1C(=O)NC(=O)C1=O,92 to 96 °C

row,Structure (SMILES),melting point
1,NC1CCCC(C(=O)NC2CC2)C1 (stereo not drawn),97 to 99 °C
2,O=S(=O)(Cl)c1c(Cl)ccc2ccccc12,65 to 67 °C
3,Cn1cc(C(=O)CBr)cn1,116 to 118 °C
4,CN(C)C(C#N)c1cc[nH]c1 (stereo not drawn),71 to 73 °C
5,COC(=O)NC(C(=O)O)C(C)C (stereo not drawn),83 to 85 °C
6,CC(C)NCc1nnc(-c2ccc([N+](=O)[O-])cc2)o1,175 to 182 °C
7,Cc1cccc(CNc2ccc3[nH]c(=O)[nH]c3c2)c1,216 to 218 °C
8,CCOC=C1C(=O)N(c2ccc(Cl)cn2)C(=O)c2ccccc21,200 to 202 °C
9,Cc1ccc(-c2csc(N)n2)s1,129 to 131 °C
10,CCOC(=O)c1c(CC(C)C)csc1NC(=O)CCl,98 to 100 °C
11,CSc1cc2c(cc1C=O)OCCO2,112 to 114 °C
12,COc1ccc(Br)cc1C1NC(=O)NC1=O (stereo not drawn),209 to 211 °C
13,Nc1ccc2ccn(Cc3ccccc3)c2c1,119 to 121 °C
14,NCc1cccnc1N1CCOCC1,41 to 43 °C
15,O=C(CCl)NCc1ccccc1S(=O)(=O)N1CCCCC1,89 to 91 °C
16,CC(CC(N)=S)n1cc(Cl)cn1 (stereo not drawn),128 to 130 °C
17,O=C1CCN(C(=O)c2ccccc2Cl)CC1,107 to 109 °C
18,Cc1c(S(N)(=O)=O)sc2c(Cl)cccc12,261 to 263 °C
19,CN1CCc2nc(N)c(C#N)cc2C1,215 to 217 °C
20,CC(C)(C)c1cc(=O)[nH]c(C(C)(C)C)n1,163 to 165 °C
21,CC(C)NC(C)(C)CO,42 to 44 °C
22,NC(=NO)c1ccccc1Cl,87 to 91 °C

row,Structure (SMILES),melting point
1,NCCc1nc2ccccc2s1,47 to 49 °C
2,Cn1cc(C=O)nn1,103 to 105 °C
3,Clc1nccc(N2CCOCC2)n1,111 to 113 °C
4,OC1CCCOc2cc(Br)ccc21 (stereo not drawn),73 to 75 °C
5,Cc1ccc(-c2cnnc(N)n2)cc1,277 to 279 °C
6,CC(c1nnc(S)n1-c1ccc(F)cc1)N1CCCCC1 (stereo not drawn),115 to 117 °C
7,O=c1ccn2ncc(Br)c2[nH]1,349 to 351 °C
8,CCOC(=O)CNC(=O)CC,50 to 52 °C
9,NS(=O)(=O)N1CCN(Cc2ccccc2)CC1,147 to 149 °C
10,NC(=O)CC(N)=S,97 to 110 °C
11,O=c1[nH]ccc2ccn(Cc3ccccc3)c12,177 to 179 °C
12,Nc1ccc(Br)nc1Cl,113 to 115 °C
13,Clc1noc(-c2ccco2)n1,73 to 75 °C
14,CCNC(=O)CCC(=O)O,84 to 86 °C
15,Cc1nc(NC(=O)OC(C)(C)C)sc1C(N)=O,279 to 281 °C
16,O=C1CCC(=O)N1CC1CO1 (stereo not drawn),61 to 63 °C
17,Cc1noc(-c2cccnc2Cl)n1,65 to 67 °C
18,Nc1nc(CCl)nc(Nc2ccccc2)n1,139 to 141 °C
19,Cc1cc(N)n(C2CCN(C)CC2)n1,89 to 91 °C
20,O=C1C=C(Br)C(=O)N1,151 to 153 °C

# The remaining lines, values ahead:
row,melting point,Structure (SMILES)
1,177 to 181 °C,O=C(O)c1nc(-c2ccccc2)n(-c2ccccc2)n1
2,156 to 158 °C,O=C1C=CC=NC1=C(O)Nc1cnccn1
3,179 to 181 °C,CCc1cc(Cl)n2nc(C(=O)OC)nc2n1
4,125 to 127 °C,CNc1cccc2ncccc12
5,165 to 167 °C,O=C(O)c1cc(O)cc(OCC(F)(F)F)c1
6,72 to 74 °C,CC(=O)c1cc(Cl)cc(CCl)c1O
7,52 to 54 °C,O=C(O)Cc1cccc(OC(F)F)c1
8,119 to 121 °C,COC(=O)C(N)Cc1c[nH]c2ccc(Br)cc12 (stereo not drawn)
9,130 to 132 °C,O=C(O)c1csc(S(=O)(=O)Cl)c1
10,249 to 251 °C,Cc1ccc(NC(=O)c2c(F)cccc2Cl)c(C(=O)O)c1
11,165 to 167 °C,O=C(O)C(c1ccccc1)N1CCS(=O)(=O)CC1 (stereo not drawn)
12,165 to 167 °C,O=C(O)[C@@H]1CCCN1C(=O)c1ccccn1
13,323 to 325 °C,O=C(O)c1cc(=O)[nH]c2cc(F)ccc12
14,198 to 200 °C,CN(C)S(=O)(=O)c1ccc(I)c(C(=O)O)c1
15,63 to 65 °C,Cc1ccccc1C(=O)C=O
16,121 to 123 °C,NC(=O)C1CCCN1Cc1ccccc1N (stereo not drawn)
17,167 to 169 °C,O=C(O)c1cnsn1
18,196 to 198 °C,O=C(O)c1ccc(Oc2ccccc2[N+](=O)[O-])cc1
19,300 to 302 °C,O=c1[nH]cnc2c1oc1ccccc12
20,74 to 76 °C,O=C(O)CCCn1cccn1
21,210 to 212 °C,Cc1ccc(Nc2nnc(S)s2)cc1Cl
22,252 to 257 °C,Cc1ccc(S(=O)(=O)NC2CC2)cc1C(=O)O
23,102 to 104 °C,O=C(O)c1cc(Cl)ccc1Oc1ccc(F)cc1
24,49 to 51 °C,CNc1ccc(Br)cc1N
25,49 to 51 °C,COc1cc(F)ccc1[N+](=O)[O-]
26,109 to 111 °C,COc1ccc(CC(N)=NO)cc1
27,166 to 168 °C,Nc1cccc(S(=O)(=O)NC2=NCCC2)c1

row,melting point,Structure (SMILES)
1,212 to 214 °C,O=C(O)c1ccc(Cl)c(I)c1
2,129 to 131 °C,CC(C)c1ccc(C(=O)N2CCNCC2)cc1
3,242 to 244 °C,CN(C)S(=O)(=O)c1cncc(C=CC(=O)O)c1
4,145 to 147 °C,Cc1c(N=C=S)c(=O)n(-c2ccccc2)n1C
5,168 to 170 °C,CCOC(=O)/C(C#N)=C\Nc1ccc(F)cc1Cl
6,122 to 124 °C,COc1ccc(N2C(=O)C=CC2=O)cn1
7,194 to 196 °C,COC(=O)c1ccc(Oc2ccc([N+](=O)[O-])cc2)nn1
8,144 to 146 °C,CCOc1ccccc1-c1cccc(C(=O)O)c1
9,313 to 315 °C,Cn1cnc2cc(C(=O)O)ccc21
10,191 to 193 °C,Cc1cc(-c2nc3cc(F)ccc3s2)ccc1N
11,209 to 211 °C,Cc1cncc(C=CC(=O)O)c1
12,31 to 33 °C,COc1ccc(N)cc1C
13,213 to 215 °C,O=C(O)c1cc(Cl)nc(Oc2ccc(Br)cc2)c1
14,52 to 54 °C,CC(O)C(=O)Nc1ccccc1 (stereo not drawn)
15,230 to 232 °C,O=C(Nc1ccsc1C(=O)O)c1ccncc1
16,169 to 171 °C,O=C(O)c1cc(S(=O)(=O)Cl)cc(Cl)c1F
17,69 to 71 °C,Nc1cccc(-c2noc(C3CC3)n2)c1
18,272 to 274 °C,O=C(O)c1ccc(-c2ccc(-c3ccccc3)cc2)s1
19,172 to 174 °C,CNS(=O)(=O)c1ccc(-c2ccccc2OC(F)(F)F)c(C(=O)O)c1
20,45 to 47 °C,CCOC(=O)CS(=O)(=O)c1ccc(Br)cc1
21,221 to 223 °C,CC(C)Cn1c(S)nc2cc(Cl)ccc2c1=O
22,174 to 176 °C,CC(C)CC(=O)Nc1ccc(Cl)c(C(=O)O)c1
23,109 to 111 °C,Clc1cc(-c2nnco2)ccn1
24,186 to 188 °C,CC(O)c1ccc(N2CCNC(=O)C2)cc1Cl (stereo not drawn)
25,154 to 156 °C,O=C(O)c1ccc(Oc2cccc(Br)c2)nc1
26,110 to 112 °C,CS(=O)(=O)c1cccc(OCC(=O)O)c1
27,187 to 189 °C,Cc1nn(-c2cccc(F)c2)c(C(F)F)c1C(=O)O

row,melting point,Structure (SMILES)
1,81 to 83 °C,COc1ccc(OC)c(C(F)(F)C(=O)O)c1
2,261 to 263 °C,Cc1ccc(-n2c(=O)c(N)c(C)n2C)cc1
3,111 to 113 °C,Clc1cc(-n2cccn2)ccn1
4,155 to 157 °C,CN1C(=O)CC(C(=O)O)C1c1cccc(Cl)c1 (stereo not drawn)
5,205 to 207 °C,O=C(O)C1CCCN(C2=NS(=O)(=O)c3ccccc32)C1 (stereo not drawn)
6,248 to 250 °C,Cc1noc2nc(-c3ccccc3Cl)cc(C(=O)O)c12
7,161 to 163 °C,CCOc1cc(C(=O)O)cc(-c2ccccc2)c1OC
8,188 to 190 °C,COc1ccc(C)cc1C1(C)NC(=O)N(CC(=O)O)C1=O (stereo not drawn)
9,80 to 82 °C,O=C(O)CNS(=O)(=O)c1cccc(C(F)(F)F)c1
10,227 to 229 °C,Cc1nn(Cc2ccc(F)cc2)c2sc(C(=O)O)cc12
11,308 to 310 °C,O=C(O)c1cc(-c2ccncc2)nc2ccccc12
12,173 to 177 °C,CC(C)c1ccccc1-n1ccnc1S
13,145 to 147 °C,CC(C)OC(=O)c1ccnc(O)c1
14,115 to 117 °C,CSc1ccccc1CC(=O)O
15,83 to 85 °C,ClCc1ncn(-c2ccccc2)n1
16,126 to 128 °C,COCCCn1cc(C(=O)c2cc(F)ccc2O)cc(C#N)c1=O
17,243 to 245 °C,Cc1nc2ccccc2cc1C(=O)O
18,205 to 207 °C,O=C(O)c1ccc(NC(=O)C2CC2)s1
19,112 to 114 °C,CS(=O)(=O)c1ccc2c(c1)CCCN2
20,139 to 141 °C,CS(=O)(=O)NCc1ccc(C(=O)O)o1
21,120 to 122 °C,CC(C)(C)c1ccc(C(=O)NC(=O)CCl)cc1
22,171 to 173 °C,O=C(O)CCc1nc2cc(C(F)(F)F)ccc2n(Cc2ccccc2)c1=O
23,109 to 111 °C,COc1ccc(-c2nc(CC(=O)O)cs2)cc1
24,81 to 83 °C,COCCCOc1cccc(C(=O)O)c1
25,335 to 337 °C,Cc1cc(=O)n2nc(N)sc2n1
